Literature values as cited in US12440501B2, “Cannabinoid compositions and methods of use thereof for immune modulation” (SRIN Therapeutics, Inc., priority 2019, dated 2025).
pIC50: −log10 of the molar value.

Key:
xenograft tumors = details: regardless of Ras/Raf pathway deregulation
[1] = test system: BRAF(V600E), BRAF(wild type), c-RAF, VEGFR2, PDGFR, CSF1R, RET, c-KIT, SRC, STE20; details: range over several intracellular kinases
HCT116 [2] = test system: HCT116
[3] = test system: ICAM-1 expression on A549; details: in vitro
VEGFR expression = details: doses of 1-5 mg/kg
HCT116 [4] = test system: HCT116; remark: listed apart in the source
GPR55 = GPR55 (Homo sapiens, UniProt Q9Y2T6)
[5] = mice, 120 mg/kg i.p.
melanoma = details: share of melanoma patients

Sequence of GPR55 (Q9Y2T6 whole entry, species assumed): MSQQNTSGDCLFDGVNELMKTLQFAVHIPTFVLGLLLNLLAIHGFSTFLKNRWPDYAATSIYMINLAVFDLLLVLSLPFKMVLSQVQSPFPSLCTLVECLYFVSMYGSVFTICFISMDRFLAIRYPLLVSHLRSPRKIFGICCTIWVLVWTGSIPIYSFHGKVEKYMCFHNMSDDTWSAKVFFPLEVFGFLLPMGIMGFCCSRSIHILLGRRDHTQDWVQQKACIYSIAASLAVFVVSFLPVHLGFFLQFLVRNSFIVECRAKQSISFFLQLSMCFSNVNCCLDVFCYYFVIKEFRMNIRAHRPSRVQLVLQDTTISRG

Compound: Cn1cnc2c(F)c(Nc3ccc(Br)cc3F)c(C(=O)NOCCO)cc21 [MEK162]
- inhibition of growth of xenograft tumors (xenograft tumors): highly effective in inhibiting growth of xenograft tumors

Compound: C=C(C)[C@@H]1CCC(C)=C[C@H]1c1c(O)cc(CCCCC)cc1O [cannabidiol]
- anti-proliferative effect (HCT116 [2]): significant anti-proliferative effect
- ICAM-1 expression [3]: upregulates ICAM-1 expression
- VEGFR expression (VEGFR expression): significantly reduce VEGFR expression
- apoptosis (HCT116 [4]): induces apoptosis
- activity at GPR55 (GPR55): antagonist
- apoptosis (DLD-1): induces apoptosis
- inhibition of A549 invasion and metastasis (A549): profound inhibition
- anti-proliferative effect (Caco-2): significant anti-proliferative effect
- peak plasma levels [5]: 14.3 µg/mL
- plasma levels [5]: 14300 ng/mL

Compound: ipilimumab: FDA-approved immune checkpoint inhibitor targeting CTLA-4
- responses in melanoma patients (melanoma): ~50%

Compound: nivolumab: FDA-approved immune checkpoint inhibitor targeting PD-1
- responses in melanoma patients (melanoma): ~50%

Compound: pembrolizumab: FDA-approved immune checkpoint inhibitor targeting PD-1
- responses in melanoma patients (melanoma): ~50%
